The values that follow come from patent US7767665B2, “1,3-benzothiazinone derivatives and use thereof” (Takeda Pharmaceutical Company Limited, priority 2001, dated 2010).

Where a name gives a salt, the structure may show the parent alone.

The term melting point denotes the temperature, or range, at which the solid turns liquid.

In turn, `O=c1nc(-c2c[nH]c3ccccc23)sc2ccccc12` [Example 172, 2-(1H-Indol-3-yl)-4H-1,3-benzothiazine-4-one] came in with a melting point of 276.5 to 277 °C.

In the case of `CSc1cc(CCC(=O)O)cc(-c2nc(=O)c3ccccc3s2)n1` [Example 342, 3-[2-(Methylthio)-6-(4-oxo-4H-1,3-benzothiazin-2-yl)-4-pyridyl]propionic acid], the melting point was 235.5 to 236.5 °C.

As to `N#Cc1cccc(-c2nc(=O)c3ccccc3s2)n1` [Example 242, 6-(4-Oxo-4H-1,3-benzothiazin-2-yl)-s-pyridinecarbonitrile], the melting point is 263.7 to 264.2 °C.

Consider `CC(C)(C)OC(=O)CCOCCCc1cccc(-c2nc(=O)c3ccccc3s2)n1` [Example 66, tert-Butyl 3-{3-[6-(4-oxo-4H-1,3-benzothiazin-2-yl)-2-pyridyl]propoxy}propanoate], for which the melting point fell in the range of 71 to 71.9 °C.

`N#CCCc1cccc(-c2nc(=O)c3ccccc3s2)n1` [Example 306, 3-[6-(4-Oxo-4H-1,3-benzothiazin-2-yl)-2-pyridyl]propionitrile]: the melting point lay within 156.6 to 157 °C.

The compound `Cc1ccnc(-c2cc(C)cc(-c3nc(=O)c4ccccc4s3)n2)c1` [Example 200, 2-[6-(4,4′-Dimethyl-2,2′-bipyridyl)]-4H-1,3-benzothiazine-4-one] had a melting point of 234.9 to 235.2 °C.

For `O=c1nc(-c2cccc(-c3ccccn3)n2)sc2ccccc12` [Example 199, 2-[6-(2,2′-Bipyridyl)]-4H-1,3-benzothiazine-4-one], the melting point was 222.1 to 223.9 °C.

The compound `CC(C)(C)OC(=O)CCCCCOc1ccc2sc(-c3ccccn3)nc(=O)c2c1` [Example 124, tert-Butyl 6-[[4-oxo-2-(2-pyridyl)-4H-1,3-benzothiazin-6-yl]oxy]hexanoate] displayed a melting point of 101.2 to 102.4 °C.

In turn, `O=c1nc(-c2cccc(CN3CCCCC3)n2)sc2ccccc12` [Example 266, 2-[6-(1-Piperidinomethyl)-2-pyridyl]-4H-1,3-benzothiazine-4-one] came in with a melting point of 162 to 163 °C.

In the case of `O=C(O)[C@@H]1CCCN1C(=O)CCc1cccc(-c2nc(=O)c3ccccc3s2)n1` [Example 313, 1-{3-[6-(4-Oxo-4H-1,3-benzothiazin-2-yl)-2-pyridyl]propanoyl}proline], the melting point lay in the range of 210.5 to 211 °C.

As for `O=c1nc(-c2ccnc(-c3cccs3)c2)sc2ccccc12` [Example 75, 2-[2-(2-Thienyl)-4-pyridyl]-4H-1,3-benzothiazine-4-one], the melting point lay within 160.4 to 161.1 °C.

`CC(=O)NCCc1cccc(-c2nc(=O)c3ccccc3s2)n1` [Example 226, N-[2-[6-(4-Oxo-4H-1,3-benzothiazin-2-yl)-2-pyrizyl]ethyl]acetamide] came in with a melting point of 206.7 to 207.9 °C.

On to `CCN(CC)C(=O)NCCc1cccc(-c2nc(=O)c3ccccc3s2)n1` [Example 230, N,N-Diethyl-N′-[2-[6-(4-oxo-4H-1,3-benzothiazin-2-yl)-2-pyridyl]ethyl]urea], for which the melting point lay in the range of 174.9 to 175.6 °C.

`CC(C)S(=O)(=O)c1cccc(-c2nc(=O)c3ccccc3s2)n1` [Example 152, 2-[6-(Isopropylsulfonyl)-2-pyridyl]-4H-1,3-benzothiazine-4-one] had a melting point of 205 to 206 °C.

The compound `O=c1nc(-c2cccs2)sc2ccccc12` [Example 2, 2-(2-Thienyl)-4H-1,3-benzothiazine-4-one] registered a melting point of 157.7 to 158.2 °C.

In turn, `O=c1nc(-c2cccc(SCCCc3ccccc3)n2)sc2ccccc12` [Example 164, 2-[6-(3-Phenylpropylthio)-2-pyridyl]-4H-1,3-benzothiazine-4-one] yielded a melting point of 192.5 to 194 °C.

`CC(C)CCSc1ccc(-c2nc(=O)c3ccccc3s2)cn1` [Example 92] yielded a melting point of 92.8 to 93.1 °C.

In the case of `C[S+]([O-])c1cc(CCC(=O)OC(C)(C)C)cc(-c2nc(=O)c3ccccc3s2)n1` (stereo not drawn) [Example 343, tert-Butyl 3-[2-(methylsulfinyl)-6-(4-oxo-4H-1,3-benzothiazin-2-yl)-4-pyridyl]propanoate], the melting point was 219.5 to 220 °C.

In the case of `O=C1c2ccccc2C(=O)N1CCOc1ccc(-c2nc(=O)c3ccccc3s2)cn1` [Example 95], the melting point was in the range of 212.4 to 212.6 °C.

On to `Cl.NCCc1ccnc(-c2nc(=O)c3ccccc3s2)c1`, for which the melting point is 238 °C (dec.).

`COc1ccc2c(=O)nc(-c3cccc(CCC(=O)O)n3)sc2c1` [Example 174, 3-[6-(7-Methoxy-4-oxo-4H-1,3-benzothiazin-2-yl)-2-pyridyl]propionic acid]: the melting point was in the range of 234.2 to 235.2 °C.

For the compound `O=c1nc(-c2cccc(-c3ccco3)n2)sc2ccccc12` [Example 194, 2-[6-(2-Furyl)-2-pyridyl]-4H-1,3-benzothiazine-4-one], the melting point lay in the range of 217.9 to 218.4 °C.

Compound `O=C(O)CCc1cccc(-c2nc(=O)c3ccc(F)cc3s2)n1` [Example 182, 3-[6-(7-Fluoro-4-oxo-4H-1,3-benzothiazin-2-yl)-2-pyridyl]propionic acid] yielded a melting point of 215 to 217 °C.

Take `N#CCCc1ccnc(-c2nc(=O)c3ccccc3s2)c1` [Example 317, 3-[2-(4-Oxo-4H-1,3-benzothiazin-2-yl)-4-pyridyl]propionitrile]: the melting point is 178.3 to 179 °C.

Turning to `O=c1nc(-c2cccc([S+]([O-])Cc3ccccc3)n2)sc2ccccc12` (stereo not drawn) [Example 160, 2-(6-Benzylsulfinyl-2-pyridyl)-4H-1,3-benzothiazine-4-one], the melting point was 208.5 to 210 °C.

`CC(C)(C)OC(=O)/C=C/c1ccnc(-c2nc(=O)c3ccccc3s2)c1` [Example 311, tert-Butyl (E)-3-[2-(4-oxo-4H-1,3-benzothiazin-2-yl)-4-pyridyl]acrylate] displayed a melting point of 196 to 196.7 °C.

In turn, `Cc1cccc2c(=O)nc(-c3cccc(CCC(=O)OC(C)(C)C)n3)sc12` [Example 338, tert-Butyl 3-[6-(8-methyl-4-oxo-4H-1,3-benzothiazin-2-yl)-2-pyridyl]propanoate] displayed a melting point of 109.9 to 110 °C.

Regarding `CC(C)(C)OC(=O)CCc1ccc(-c2nc(=O)c3ccccc3s2)nc1` [Example 327, tert-Butyl 3-[6-(4-oxo-4H-1,3-benzothiazin-2-yl)-3-pyridyl]propanoate], the melting point was in the range of 160 to 161 °C.

Take `NCCc1ccnc(-c2nc(=O)c3ccc(Cl)cc3s2)c1` (as salt: trifluoroacetic acid salt) [Example 223, 2-[4-(2-Aminoethyl)-2-pyridyl]-7-chloro-4H-1,3-benzothiazine-4-one trifluoroacetic acid salt]: the melting point was 212 °C (dec.).

The compound `O=c1nc(-c2cccc(CN3CCC(O)(c4ccc(Cl)cc4)CC3)n2)sc2ccccc12` had a melting point of 151 to 153 °C.

`CSc1cc(CCC(=O)OC(C)(C)C)cc(-c2nc(=O)c3ccccc3s2)n1` [Example 341, tert-Butyl 3-[2-(methylthio)-6-(4-oxo-4H-1,3-benzothiazin-2-yl)-4-pyridyl]propanoate] had a melting point of 125.5 to 126.5 °C.

With `CC(C)(C)OC(=O)CCc1cccc(-c2nc(=O)c3ccc(Cl)cc3s2)n1` [Example 5, tert-Butyl 3-[6-(7-chloro-4-oxo-4H-1,3-benzothiazin-2-yl)-2-pyridyl]propanoate], the melting point is 167.9 to 168.2 °C.

Compound `Cc1ccc(Sc2ccc(-c3nc(=O)c4ccccc4s3)cn2)cc1` [Example 90, 2-[2-(4-Methyl)phenylthio-3-pyridyl]-4H-1,3-benzothiazine-4-one] yielded a melting point of 172.6 to 172.8 °C.

`COC(=O)CS(=O)(=O)Cc1cccc(-c2nc(=O)c3ccccc3s2)n1` [Example 260, Methyl ({[6-(4-oxo-4H-1,3-benzothiazin-2-yl)-2-pyridyl]methyl}sulfonyl)acetate] gave a melting point of 205 to 207 °C.

For `CCS(=O)(=O)NCc1cccc(-c2nc(=O)c3ccccc3s2)n1` [Example 212, N-[[6-(4-Oxo-4H-1,3-benzothiazin-2-yl)-2-pyridyl]methyl]ethanesulfonamide], the melting point lay in the range of 170 to 171 °C.

For the compound `O=c1nc(-c2cccc(CCP(=O)(O)O)n2)sc2ccccc12` [Example 246], the melting point was 235.3 to 237.2 °C.

`O=c1nc(-c2cccc(CN3CCC(Cc4ccccc4)CC3)n2)sc2ccccc12` [Example 268, 2-{6-[(4-Benzyl-1-piperidyl)methyl]-2-pyridyl}-4H-1,3-benzo thiazine-4-one] showed a melting point of 151 to 153 °C.

Consider `CCCCNC(=O)c1ccc2c(=O)nc(-c3ccccn3)sc2c1` [Example 237, N-Butyl-4-oxo-2-(2-pyridyl)-4H-1,3-benzothiazine-7-carboxamide], for which the melting point was in the range of 193.5 to 194.2 °C.

Compound `CC(C)(C)OC(=O)CCc1cc(C#N)nc(-c2nc(=O)c3ccccc3s2)c1` [Example 355, tert-Butyl 3-[2-cyano-6-(4-oxo-4H-1,3-benzothiazin-2-yl)-4-pyridyl]propanoate] registered a melting point of 189.9 to 190.7 °C.

Consider `NCCCCCCNC(=O)c1cccc(-c2nc(=O)c3ccccc3s2)n1` (as salt: hydrochloride) [Example 107, N-(6-Aminohexyl)-6-(4-oxo-4H-1,3-benzothiazin-2-yl)-2-pyridinecarboxamide hydrochloride], for which the melting point lay in the range of 95.2 to 97.6 °C.

`CCOP(=O)(CCc1cccc(-c2nc(=O)c3ccccc3s2)n1)OCC`: the melting point was 148.8 to 149.8 °C.

In turn, `O=c1nc(-c2cccc(S(=O)(=O)CCCc3ccccc3)n2)sc2ccccc12` [Example 166, 2-[6-[(3-Phenylpropyl)sulfonyl]-2-pyridyl]-4H-1,3-benzothiazine-4-one] showed a melting point of 149.5 to 151 °C.

As to `CC(C)CC[S+]([O-])c1cccc(-c2nc(=O)c3ccccc3s2)n1` (stereo not drawn) [Example 157, 2-(6-Isoamylsulfinyl-2-pyridyl)-4H-1,3-benzothiazine-4-one], the melting point fell in the range of 59.5 to 61 °C.

Take `CN(C)CCSc1cncc(-c2nc(=O)c3ccccc3s2)n1` [Example 297]: the melting point is 160.5 °C (dec.).

Take `CCC[S+]([O-])Cc1cccc(-c2nc(=O)c3ccccc3s2)n1` (stereo not drawn) [Example 253]: the melting point lay within 171 to 173 °C.
